How the values were obtained:
Format in all cases: cell-based
[1] = tested on: Hh signaling pathway; experiment: Gli-luciferase; details: for IC50: read-out: Gli-luc reporter IC50
[2] = target: wild-type Smo (Mus musculus, UniProt P56726); experiment: Gli-Luc reporter assay in NIH3T3-Gli-Luc cells overexpressing wild-type Smo
[3] = target: Smo D477G (Mus musculus, UniProt P56726, D477G); experiment: Gli-Luc reporter assay in NIH3T3-Gli-Luc cells overexpressing Smo D477G
[4] = tested on: Daoy cells; experiment: Cell proliferation; details: Homo sapiens, 48 h, read-out: cell viability
[5] = target: Smo (Homo sapiens, UniProt Q99835); experiment: Smo ciliary localization in NIH3T3 cells expressing Smo treated with Shh
Sequence of Smo (Q99835 28-787): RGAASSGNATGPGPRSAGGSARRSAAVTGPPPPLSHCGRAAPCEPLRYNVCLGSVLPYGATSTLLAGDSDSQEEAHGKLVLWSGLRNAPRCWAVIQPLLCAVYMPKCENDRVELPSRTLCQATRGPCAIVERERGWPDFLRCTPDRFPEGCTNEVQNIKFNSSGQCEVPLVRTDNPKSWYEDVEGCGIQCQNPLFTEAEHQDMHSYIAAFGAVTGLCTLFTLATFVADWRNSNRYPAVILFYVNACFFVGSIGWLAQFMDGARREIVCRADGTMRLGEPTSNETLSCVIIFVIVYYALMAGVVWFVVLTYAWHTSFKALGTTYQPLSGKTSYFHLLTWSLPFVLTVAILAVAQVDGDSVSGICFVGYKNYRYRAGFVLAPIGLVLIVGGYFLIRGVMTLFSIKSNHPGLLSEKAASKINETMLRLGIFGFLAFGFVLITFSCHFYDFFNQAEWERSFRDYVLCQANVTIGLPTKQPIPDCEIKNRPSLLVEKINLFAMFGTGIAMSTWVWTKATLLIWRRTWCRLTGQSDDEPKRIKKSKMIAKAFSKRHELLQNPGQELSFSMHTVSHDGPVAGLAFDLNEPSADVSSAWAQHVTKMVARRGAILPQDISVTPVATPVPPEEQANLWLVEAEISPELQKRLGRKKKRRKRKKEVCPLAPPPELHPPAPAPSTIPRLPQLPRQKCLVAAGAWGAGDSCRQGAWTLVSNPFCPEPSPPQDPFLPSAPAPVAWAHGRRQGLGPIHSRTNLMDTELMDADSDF

Sequence of Smo D477G (P56726 33-793 D477G): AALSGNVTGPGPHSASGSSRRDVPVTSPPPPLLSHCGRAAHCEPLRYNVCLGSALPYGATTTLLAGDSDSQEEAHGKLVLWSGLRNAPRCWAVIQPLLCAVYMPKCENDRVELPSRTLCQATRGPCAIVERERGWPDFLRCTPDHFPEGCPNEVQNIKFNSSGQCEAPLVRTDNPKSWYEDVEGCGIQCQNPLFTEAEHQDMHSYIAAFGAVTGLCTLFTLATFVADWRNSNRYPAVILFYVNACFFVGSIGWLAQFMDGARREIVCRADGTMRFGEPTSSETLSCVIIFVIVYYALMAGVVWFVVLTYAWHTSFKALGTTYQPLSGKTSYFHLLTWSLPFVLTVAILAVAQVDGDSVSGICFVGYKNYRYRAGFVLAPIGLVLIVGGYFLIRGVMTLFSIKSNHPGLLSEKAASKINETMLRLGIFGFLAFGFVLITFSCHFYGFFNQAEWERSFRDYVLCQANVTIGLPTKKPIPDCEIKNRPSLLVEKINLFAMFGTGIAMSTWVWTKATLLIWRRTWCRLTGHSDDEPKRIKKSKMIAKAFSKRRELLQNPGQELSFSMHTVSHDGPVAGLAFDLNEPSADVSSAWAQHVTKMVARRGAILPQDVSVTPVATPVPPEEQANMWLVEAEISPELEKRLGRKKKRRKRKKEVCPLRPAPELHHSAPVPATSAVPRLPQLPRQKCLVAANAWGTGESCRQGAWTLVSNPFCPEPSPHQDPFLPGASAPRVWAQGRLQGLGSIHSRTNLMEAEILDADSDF
Sequence of wild-type Smo (P56726 33-793): as the sequence (P56726 33-793 D477G) above, with G445D counted along it

| Compound | IC50 [1] [µM] | other results |
| --- | --- | --- |
| COc1cc(NC(=O)c2cccnc2)ccc1C(=O)Nc1ccc(Cl)c(-c2nc3ccccc3[nH]2)c1 [Compound 16] | 0.08 ± 0.02 | – |
| COc1cc(NC(=O)c2ccc(Cl)nc2)ccc1C(=O)Nc1ccc(Cl)c(-c2ncc(-c3ccccc3)[nH]2)c1 [Compound 22] | 0.15 ± 0.08 | – |
| COc1cc(NC(=O)c2ccc(Cl)cc2Cl)ccc1C(=O)Nc1ccc(Cl)c(-c2ncc(-c3ccccc3)[nH]2)c1 [Compound 18] | 0.26 ± 0.08 | loss of potency vs compound 17 ([1]; Gli-luc IC50 ratio to compound 17): 2.2 fold |
| COc1cc(NC(=O)c2ccccc2Cl)ccc1C(=O)Nc1ccc(Cl)c(-c2ncc(-c3ccccc3)[nH]2)c1 [Compound 17] | 0.12 ± 0.06 | – |
| COc1cc(NC(=O)c2ccc(F)cc2)ccc1C(=O)Nc1ccc(Cl)c(-c2ncc(-c3ccccc3)[nH]2)c1 [Compound 20] | 0.25 ± 0.04 | – |
| COc1cc(NC(=O)c2cccnc2)ccc1C(=O)Nc1ccc(Cl)c(-c2ncc(-c3ccccc3)[nH]2)c1 [Compound 23] | 0.07 ± 0.02 | – |

Now those with a lower IC50 [1], led by results:

| IC50 [1] [µM] | Compound | other results |
| --- | --- | --- |
| 0.05 ± 0.02 | COc1cc(NC(=O)c2cccnc2Cl)ccc1C(=O)Nc1ccc(Cl)c(-c2nc3ccccc3[nH]2)c1 [Compound 14] | – |
| 0.03 ± 0.01 | COc1cc(NC(=O)c2cccnc2Cl)ccc1C(=O)Nc1ccc(Cl)c(-c2ncc(-c3ccccc3)[nH]2)c1 [Compound 21] | potency compared to compound 3 ([1]; Gli-luc reporter, fold higher than compound 3): 6 fold; IC50 [2]: 0.039 µM; IC50 [3]: 0.096 µM; Hh pathway inhibition in mutant D477G ([3]; NIH3T3-Gli-Luc cells overexpressing Smo D477G): slightly decreased; shift in IC50, mutant D477G vs WT ([3]; Smo D477G vs wild-type Smo): 2.4 fold; viability at 1 µM [4]: 72%; viability at 10 µM [4]: 43%; Smo ciliary translocation [5]: sharp drop |
| 0.02 ± 0.01 | CS(=O)(=O)c1ccc(C(=O)Nc2ccc(Cl)c(-c3ccccn3)c2)c(Cl)c1 [Compound 1, vismodegib, reference compound] | – |
